From PubChem BioAssay AID1259338 (Broad Institute, 2017)
Calls of active or inactive are those of the source.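 How the source made its calls: active means compounds lowering the signal with a fitted AC50 at or below a set concentration limit; inconclusive means flat curve with 30 to 70% inhibition, or a poor fit; inactive means the rest.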

Molecular target: Caspase recruitment domain-containing protein 9 (Homo sapiens) + E3 ubiquitin-protein ligase TRIM62 (Homo sapiens) (UniProt Q9H257+Q9BVG3)
Assay: CARD9/TRIM62 protein interaction inhibitors – cell lysate, HEK293FT lysates, Luminex bead readout, dose response (AID 1259338); on activity change, negative = inhibition: reference of the scale not given here
Details: Luminex bead PPI, MFI; for activity change, negative = inhibition: at 80 µM (top of the series)

Chain of Caspase recruitment domain-containing protein 9 (Homo sapiens) + E3 ubiquitin-protein ligase TRIM62 (Homo sapiens) (Q9BVG3 whole entry, looked up, the tested form may be a part): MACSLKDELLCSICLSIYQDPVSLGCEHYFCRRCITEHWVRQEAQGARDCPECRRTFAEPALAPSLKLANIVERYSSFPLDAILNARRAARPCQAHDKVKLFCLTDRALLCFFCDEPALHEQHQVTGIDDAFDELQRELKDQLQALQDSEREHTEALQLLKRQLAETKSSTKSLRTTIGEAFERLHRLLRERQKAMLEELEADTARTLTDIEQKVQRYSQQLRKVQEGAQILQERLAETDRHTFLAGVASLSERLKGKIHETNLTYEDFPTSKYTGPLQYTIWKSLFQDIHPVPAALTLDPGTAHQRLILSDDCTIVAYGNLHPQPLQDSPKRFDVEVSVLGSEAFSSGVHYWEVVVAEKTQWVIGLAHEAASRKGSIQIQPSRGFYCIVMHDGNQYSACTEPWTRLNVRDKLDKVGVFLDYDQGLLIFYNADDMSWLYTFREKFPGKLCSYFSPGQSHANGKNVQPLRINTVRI
Chain of Caspase recruitment domain-containing protein 9 (Homo sapiens) + E3 ubiquitin-protein ligase TRIM62 (Homo sapiens) (Q9H257 whole entry, looked up, the tested form may be a part): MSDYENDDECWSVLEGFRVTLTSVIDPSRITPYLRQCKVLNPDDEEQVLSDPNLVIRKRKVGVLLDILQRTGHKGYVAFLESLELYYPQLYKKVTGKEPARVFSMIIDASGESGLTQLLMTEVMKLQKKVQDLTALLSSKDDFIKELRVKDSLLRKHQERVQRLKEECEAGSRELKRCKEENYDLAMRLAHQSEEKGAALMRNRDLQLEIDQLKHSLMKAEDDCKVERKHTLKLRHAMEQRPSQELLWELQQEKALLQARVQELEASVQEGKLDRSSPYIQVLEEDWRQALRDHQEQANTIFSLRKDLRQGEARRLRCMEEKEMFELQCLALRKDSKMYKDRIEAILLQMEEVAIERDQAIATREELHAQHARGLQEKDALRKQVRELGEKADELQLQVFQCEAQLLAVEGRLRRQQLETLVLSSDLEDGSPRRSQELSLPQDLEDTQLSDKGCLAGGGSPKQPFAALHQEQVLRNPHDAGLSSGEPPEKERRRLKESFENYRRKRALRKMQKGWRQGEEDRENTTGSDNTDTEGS

| activity change, negative = inhibition | AC50 | SMILES |
| --- | --- | --- |
| inactive | – | COc1ccc(S(=O)(=O)Nc2ccc3c(c2)C(=O)N([C@H](C)CO)C[C@H](C)[C@@H](CN(C)C(=O)C2CCCCC2)OCCCC[C@H](C)O3)cc1 |
| – | 18 µM | NC(=O)C1(N2CCCCC2)CCN(c2ncc(NC(=O)c3ccccc3F)cc2C(=O)O)CC1 |
| – | > 160 µM (inactive) | O=S(=O)(c1ccc2nc(-c3ccco3)c(-c3ccco3)nc2c1)N1CCOCC1 |
| inactive | – | Cc1ccc(N2C(=O)c3ccccc3C2C(=O)c2ccc(O)cc2O)cc1 (stereo unspecified) |
| inactive | – | COCCCNC(=O)C1CCN(c2ccc(N3CCOCC3)nn2)CC1 |
| inactive | – | O=C(N/N=C/C=C/c1ccco1)c1cncc(Br)c1 |
| inactive | – | C(=C\c1ccco1)/c1nc2ccccc2[nH]1 |
| inactive | – | Cc1scc(C(=O)NCc2ccco2)c1-c1ccccc1 |
| inactive | – | O=C(NCCc1ccco1)c1ccc(OCc2cn3ccccc3n2)cc1 |
| – | 77.6 µM | COc1ccc(S(=O)(=O)N2CCOCC2)cc1NC(=O)c1cccc(-n2cccc2)c1 |
| inactive | – | CCOC(=O)c1ccc(-c2ccc(C3CC(=O)Nc4cc5c(cc43)OCCO5)o2)cc1 (stereo unspecified) |
| inactive | – | O=C(COC(=O)c1cc(-c2ccco2)nc2ccccc12)NCc1ccc2c(c1)OCO2 |
| inactive | – | O=C(NCc1ccco1)c1ccc(S(=O)(=O)N2CCOCC2)cc1 |
| inactive | – | CCOc1ccc(CNc2nc(-c3nnc(-c4ccc(F)cc4)o3)nc3ccccc23)cc1 |
| inactive | – | C[C@H](CO)N1C[C@H](C)[C@@H](CN(C)C(=O)C2CCCCC2)OCCCC[C@H](C)Oc2ccc(NS(C)(=O)=O)cc2C1=O |
| – | 6.01 µM | NC(=O)C1(N2CCCCC2)CCN(c2ncc(NC(=O)c3ccc(Cl)cc3)cc2C(=O)O)CC1 |
| – | 14.8 µM | NC(=O)C1(N2CCCCC2)CCN(c2ccc(NC(=O)c3cccc(Cl)c3)cc2C(=O)O)CC1 |
| inactive | – | C[C@H](CO)N1C[C@H](C)[C@@H](CN(C)C(=O)C2CCCCC2)OCCCC[C@H](C)Oc2ccc(NS(=O)(=O)c3ccccc3)cc2C1=O |

| activity change, negative = inhibition | AC50 | SMILES |
| --- | --- | --- |
| inactive | – | O=C(COC(=O)CCC(=O)c1cccs1)NCc1ccco1 |
| inactive | – | Cc1nc(C)c(C(=O)Nc2ncc([N+](=O)[O-])s2)o1 |
| inactive | – | CN(Cc1ccco1)S(=O)(=O)c1nnc(NC(=O)c2ccccc2)s1 |
| – | 53.4 µM | Cc1cncc(-c2ccc(S(N)(=O)=O)cc2F)c1 |
| – | 61.4 µM | CCN1CCN(C(=O)c2cc(-c3ccco3)nc3ccccc23)CC1 |
| inactive | – | Clc1ccc2nc(CN3CCCCCC3)cn2c1 |
| inactive | – | N#Cc1c(-c2ccco2)cc(-c2cccnc2)nc1N |
| inactive | – | O=C1NC(c2ccc(Br)cc2)Nc2sc3c(c21)CCC3 (stereo unspecified) |
| – | 42 µM | NC(=O)C1(N2CCCCC2)CCN(c2ccc(NC(=O)c3ccccc3F)cc2C(=O)O)CC1 |
| – | 28.9 µM | C[C@H](CO)N1C[C@H](C)[C@@H](CN(C)CC2CCCCC2)OCCCC[C@H](C)Oc2ccc(NS(C)(=O)=O)cc2C1=O |
| inactive | – | O=S(=O)(Nc1nc2ccccc2nc1NCc1ccco1)c1ccccc1 |
| inactive | – | O=C(Nc1ncccc1O)c1ccc(OCC2CCCO2)cc1 (stereo unspecified) |
| inactive | – | CCc1oc2ccccc2c1C(=O)CCN1CCCCC1 |
| inactive | – | O=C(COC(=O)c1ccc(S(=O)(=O)NCc2ccco2)cc1)Nc1ccc(Cl)cn1 |
| inactive | – | O=C(CC1Nc2ccccc2OC1=O)Nc1ccc(Cl)cc1 (stereo unspecified) |
| inactive | – | CN(C)C(CN=C1NS(=O)(=O)c2ccccc21)c1ccco1 (stereo unspecified) |
| – | 1.53 µM | C=CC(=O)N1CCCC2(CCN(CCN3CCCC3)C2=O)C1 (stereo unspecified) |
| inactive | – | CC(C)(C)c1ccc(-c2nc(C#N)c(NCc3ccncc3)o2)cc1 |
